Data from US9937115B2, “Oral care compositions with improved flavor” (priority 2010, dated 2018).
Structures can show the parent of a compound that is named as a salt. Where two headings read alike, the source gives them in different places.

Columns and labels:
[1] = target: T1, TRPA1 receptor (Homo sapiens, UniProt O75762); experiment: cell-based; set-up: activation: dose or concentration left out as unconfirmed; conditions: for activation at 100 µM / activation: HEK293; for activation at 100 µM: read-out: TRPA1 Direct addition; for activation: pre-incubation, read-out: TRPA1 Pre-incubation;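 on TRPA1 Pre-incubation: values above 100 mean more active than the control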
T1 construct: expressed in transfected cells; host or cells: HEK cell line
Method: The term “TRPA1 activator” as used herein refers to any component which at a concentration of 1 mM gives a calcium flux count of at least 1000 counts above the background level of calcium present in the cell according to the FLIPR method as discussed herein. The term “count” is defined as the change in fluorescence of the transfected cell lines due to the influx of calcium across the cell membrane, which reacts with the calcium sensitive dye present within the cells.
In order to select TRPA1 agonists that would be preferred for reducing off-tasting chemical components found in oral care compositions, calcium flux receptor activity on the TRPA1 was utilized as the criteria for selection of actives. With allyl isothiocyanate as the TRPA1 positive control, molecules that directly activated the TRPA1 receptor were screened in dimethylsulfoxide (DMSO). Pure molecules of each material were dissolved in DMSO at a concentration of 100 micormolar and then added to an HEK cell line containing the TRPA1 receptor. If they are TRPA1 agonists, they will cause a calcium flux in the cell which fluoresces and may then be measured using a FLIPR machine.

[2] = target: T1, TRPA1 receptor; type: cell-based; conditions: percentage of the control (allyl isothiocyanate) calcium count, material dissolved in DMSO at 100 micromolar, HEK cells with TRPA1
[3] = percentage of the control (allyl isothiocyanate) calcium count, material dissolved in DMSO at 100 micromolar, HEK cells with TRPA1, direct addition
[4] = percentage of the control (allyl isothiocyanate) calcium count, material dissolved in DMSO at 100 micromolar, HEK cells with TRPA1

T1 sequence (O75762 whole entry): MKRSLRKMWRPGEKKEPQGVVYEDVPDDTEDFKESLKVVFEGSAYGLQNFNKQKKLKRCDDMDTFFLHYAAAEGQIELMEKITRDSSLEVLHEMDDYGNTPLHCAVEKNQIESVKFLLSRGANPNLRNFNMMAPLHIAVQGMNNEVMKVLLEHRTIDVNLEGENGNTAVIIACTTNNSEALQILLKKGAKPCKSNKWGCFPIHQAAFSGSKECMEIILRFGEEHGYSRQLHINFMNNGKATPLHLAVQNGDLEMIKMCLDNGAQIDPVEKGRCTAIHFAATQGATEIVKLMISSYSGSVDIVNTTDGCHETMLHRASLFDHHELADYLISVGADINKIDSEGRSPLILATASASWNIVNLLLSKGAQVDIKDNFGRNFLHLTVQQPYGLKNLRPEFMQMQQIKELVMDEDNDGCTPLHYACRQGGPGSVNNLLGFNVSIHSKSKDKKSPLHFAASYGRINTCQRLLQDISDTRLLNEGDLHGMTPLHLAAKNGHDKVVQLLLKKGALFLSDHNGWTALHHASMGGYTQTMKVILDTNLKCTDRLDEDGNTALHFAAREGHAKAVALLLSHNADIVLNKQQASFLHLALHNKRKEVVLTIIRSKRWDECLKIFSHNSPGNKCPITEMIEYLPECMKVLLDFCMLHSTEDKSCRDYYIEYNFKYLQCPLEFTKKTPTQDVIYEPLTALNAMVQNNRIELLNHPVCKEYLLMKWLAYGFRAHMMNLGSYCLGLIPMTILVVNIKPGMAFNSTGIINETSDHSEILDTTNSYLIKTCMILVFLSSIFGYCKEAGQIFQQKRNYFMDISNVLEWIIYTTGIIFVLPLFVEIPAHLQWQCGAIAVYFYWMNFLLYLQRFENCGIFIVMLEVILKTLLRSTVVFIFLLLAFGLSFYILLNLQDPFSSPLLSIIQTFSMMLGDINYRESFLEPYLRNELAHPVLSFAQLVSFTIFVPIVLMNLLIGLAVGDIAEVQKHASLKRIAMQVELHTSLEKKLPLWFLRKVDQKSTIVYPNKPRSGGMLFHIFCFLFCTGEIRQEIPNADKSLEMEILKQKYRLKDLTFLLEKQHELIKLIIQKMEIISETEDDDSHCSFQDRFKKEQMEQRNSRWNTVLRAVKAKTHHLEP

| Compound | TRPA1 Direct addition [1, 3] | TRPA1 Pre-incubation [2] | further results |
| --- | --- | --- | --- |
| 2-phenyl propyl tetrahydrofuran | −0.15% | 108.49% |  |
| 4-Ethylguaiacol | 55.61% | 53.53% |  |
| C=CC(C)(O)CCC=C(C)CC (mixture of isomers) [Ethyl Linalool] | −0.1% | 63.35% |  |
| CC(=O)O[C@@H]1C[C@H](C)CC[C@H]1C(C)C (racemic) [DL-Menthyl Acetate] | −16.09% | 43.32% |  |
| CC(C)=CC1CC(C)CCO1 (racemic) [Rose Oxide Racemic] | −6.68% | 80.14% |  |
| COc1ccc(CC(C)=O)cc1 [1-(P-Methoxyphenyl)-2-Propanone] | 0.49% | 77.63% |  |
| CC(=O)c1nccs1 [2-Aceylthiazole] | −1.29% | 57.82% |  |
| CCC1OC(C)=C(O)C1=O (stereo not shown) [2-Ethyl-4-Hydroxy-5-Methyl-3(2) Furanone] | −1.06% | 78.56% |  |
| CCc1nc(C)cs1 [2-Ethyl-4-Methythiazole] | −1.38% | 62.39% |  |
| CCC(C)C=O (stereo not shown) [2-Methylbutraldehyde] | 81.04% | 35.61% |  |
| Cc1ccc(C=O)c(O)c1 [2_Hydroxy-4-Methyl Benzaldehyde] | 0.4% | 68.24% |  |
| CCC=CCCOC(=O)CC(C)C [3-Hexenyl-3-Methylbutanoate] | −1.61% | 88.62% |  |
| CC(=O)CCc1ccc(O)cc1 [4-P-hydroxyphenyl-2-butanone] | 0.2% | 63.07% |  |
| Cc1nc(C)c(C)s1 [,2,4,5-Trimethythiazole] | −1.43% | 64.86% |  |
| COc1ccc(C(C)=O)cc1 [Acetanisole] | 0.15% | 83.69% |  |
| C=CCCC(=O)/C=C/C1C(C)=CCCC1(C)C (stereo not drawn) [Allyl Alpha-Ionone] | 0.55% | 64.99% |  |
| C/C=C\C(=O)C1C(C)=CCCC1(C)C (stereo not drawn) [Alpha-Damascone] | −2.88% | 96.58% |  |
| CC(=O)/C=C/C1C(C)=CCCC1(C)C (stereo not drawn) [Alpha-Ionone] | −0.9% | 111.19% |  |
| C/C(C=O)=C\c1ccccc1 [Alpha-Methyl-Trans-Cinnamaldehyde] | 37.95% | 72.88% |  |
| CCCC(=O)OCc1ccc(OC)cc1 [Anisyl butyrate] | −0.03% | 112.61% |  |
| CC(=O)/C=C/C1=C(C)CCCC1(C)C [Beta Ionone] | −2.88% | 75.35% |  |
| CC1=C(/C=C/C(C)O)C(C)(C)CCC1 (stereo not drawn) [Beta-ionol] | −0.01% | 114.23% |  |
| CCCCOC(=O)C(C)OC(=O)CCC (stereo not shown) [Butyl Butyryllactate] | −1.54% | 39.69% |  |

| Compound | TRPA1 Direct addition [1, 3] | TRPA1 Pre-incubation [2] | further results |
| --- | --- | --- | --- |
| C=C(C)C1CC=C(C)C(OC(=O)CC)C1 (stereo not shown) [Carvyl Propionate] | −0.57% | 105.07% |  |
| CC(C)=CCCC(C)CCO (stereo not shown) [Cironellol] | −1.03% | 51.22% |  |
| CC(=O)CCC1C(C)=CCCC1(C)C (stereo not drawn) [Dihydro-alpha-ionone] | 0.11% | 108.18% |  |
| CC1=C(CCC(C)O)C(C)(C)CCC1 (stereo not drawn) [Dihydro-beta-ionol] | −0.33% | 97.15% |  |
| CCCc1ccc(O)c(OC)c1 [Dihydroeugenol] | 0.07% | 103.71% |  |
| CCOC(=O)C1OC1(C)c1ccccc1 (stereo not shown) [Ethyl 3-Methyl-3-Phenylglycidate] | 23.6% | 77.42% |  |
| CCOC(=O)c1ccccc1N [Ethyl Anthrailate] | 39.71% | 61.95% |  |
| CCOC(=O)/C=C/c1ccccc1 [Ethyl Cinnemate] | 0.45% | 70.82% |  |
| CCOC(=O)CSC [Ethyl Methylthio Acetate] | −0.06% | 55.69% |  |
| CCOC(=O)C1OC1c1ccccc1 (stereo not shown) [Ethyl-3-Phenylglycinate] | 12.13% | 54.22% |  |
| C=C/C(C)=C/C/C=C(\C)CCC=C(C)C [Farmesene] | −0.32% | 90.8% |  |
| CC(=O)OC1C2(C)CCC(C2)C1(C)C (stereo not shown) [Fenchyl Acetate] | −0.1% | 59.08% |  |
| CCCC1CCC(=O)O1 (stereo not shown) [Gamma Heptalactone] | 1.18% | 51.03% |  |
| CC(=O)/C(C)=C/C1C(C)=CCCC1(C)C (stereo not shown) [Gamma Methyl Ionone] | 4.96% | 23.55% |  |
| CCCCCC(C)=O [Heptanone] | −0.04% | 69.5% |  |
| CC/C=C\CCO [Hexen-1-ol] | 0.06% | 80.84% |  |
| CC(=O)C1(C)CC2=C(CCCC2(C)C)CC1C (stereo not shown) [ISO E Super] | 11.53% | −0.4% |  |
| C/C=C/c1ccc(OC(=O)Cc2ccccc2)c(OC)c1 [Iso-eugenyl phenylacetate] | 29.74% | 42.19% |  |
| CC(C)C(=O)O [Isobutryic Acid] | 1.15% | 78.64% |  |
| O=S(=O)([O-])NC1CCCCC1.[Na+] [Sodium Cyclamate] |  |  | TRPA1 Direct addition [1]: −4.07%; TRPA1 Pre-incubation [1]: 48.66% |
| CC1=CCC(=C(C)C)CC1 [Terpinolene] |  |  | activation at 100 µM [1, 3]: -17.2%; activation [1, 4]: 76.2% |
| CC/C=C/C=C/C=O [Trans,trans-2,4-Heptadienal] |  |  | activation at 100 µM [1, 3]: 119%; activation [1, 4]: -3.68% |
| CCC/C=C/COC(C)=O [Trans-2-Hexenyl Acetate] |  |  | activation at 100 µM [1, 3]: -0.32%; activation [1, 4]: 68.7% |

| Compound | TRPA1 Direct addition [1, 3] | TRPA1 Pre-incubation [2] | further results |
| --- | --- | --- | --- |
| CCCCCC/C=C/CO [Trans-2-Nonen-1-ol] |  |  | activation at 100 µM [1, 3]: -0.49%; activation [1, 4]: 115% |
| CCCCCC/C=C/C=O [Trans-2-Nonenal] |  |  | activation at 100 µM [1, 3]: 123%; activation [1, 4]: 23.3% |
| COc1cc(/C=C/C(=O)O)ccc1O [Trans-Ferulic Acid] |  |  | activation at 100 µM [1, 3]: -2.53%; activation [1, 4]: 85.6% |
| CC(=O)OCC(COC(C)=O)OC(C)=O [Triacetin] |  |  | activation at 100 µM [1, 3]: -17.1%; activation [1, 4]: 79.3% |
| CCOC(=O)CC(O)(CC(=O)OCC)C(=O)OCC [Triethyl Citrate] |  |  | activation at 100 µM [1, 3]: -9.43%; activation [1, 4]: 82.2% |
| CCCCCCCCCCC(=O)O [Undecanoic Acid] |  |  | activation at 100 µM [1, 3]: -14.6%; activation [1, 4]: 24.7% |
| CC(=O)[O-].CC(=O)[O-].[Zn+2] [Zinc Acetate] |  |  | TRPA1 Direct addition [1]: −0.66%; TRPA1 Pre-incubation [1]: 21.67% |
| O=C([O-])C(=O)[O-].[Zn+2] [Zinc Oxalate] |  |  | TRPA1 Direct addition [1]: 40.18%; TRPA1 Pre-incubation [1]: 18.11% |
| [O]=[Zn] [Zinc Oxide] |  |  | TRPA1 Direct addition [1]: −3.73%; TRPA1 Pre-incubation [1]: 71.09% |
| O=S(=O)([O-])[O-].[Zn+2] [Zinc Sulfate] |  |  | TRPA1 Direct addition [1]: 29.79%; TRPA1 Pre-incubation [1]: 21.7% |
| CCCCCC/C=C\CO [cis-2-nonen-1-ol] |  |  | activation at 100 µM [1, 3]: -1.09%; activation [1, 4]: 79.2% |
| CC/C=C\CCOC(=O)CCC [cis-3-Hexenyl Butyrate] |  |  | activation at 100 µM [1, 3]: -0.46%; activation [1, 4]: 87.9% |
| CC/C=C\CCOC(=O)CCCCC [cis-3-Hexenyl Hexanoate] |  |  | activation at 100 µM [1, 3]: 0.08%; activation [1, 4]: 106% |
| CC/C=C\CCOC(=O)C/C=C\CC [cis-3-Hexenyl cis-3-Hexenoate, [(Z)-hex-3-enyl] (Z)-hex-3-enoate] |  |  | activation at 100 µM [1, 3]: -1.04%; activation [1, 4]: 122% |
| CC/C=C\CCCCCO [cis-6-Nonen-1-ol] |  |  | activation at 100 µM [1, 3]: 2.38%; activation [1, 4]: 98% |
| CC/C=C\CCCCC=O [cis-6-Nonenal] |  |  | activation at 100 µM [1, 3]: 2.76%; activation [1, 4]: 74.7% |
| CCCOC(=O)c1ccc(O)cc1 [n-Propyl-4-hydroxybenzoate] |  |  | activation at 100 µM [1, 3]: 173%; activation [1, 4]: 8.13% |
| COc1cc(C)ccc1C(C)C [thymyl methyl ether] |  |  | activation at 100 µM [1, 3]: -0.16%; activation [1, 4]: 108% |
| CCCCCC/C=C/C=C/C=O [trans,trans-2,4-Undecadienal] |  |  | activation at 100 µM [1, 3]: 122%; activation [1, 4]: -3.93% |
| CCCC/C=C/C=O [trans-2-Heptenal] |  |  | activation at 100 µM [1, 3]: 95.9%; activation [1, 4]: -3.74% |
| CCC/C=C/C=O [trans-2-Hexenal] |  |  | activation at 100 µM [1, 3]: 1.62%; activation [1, 4]: 103% |
| Methyl Ionone |  |  | TRPA1 Direct addition [1]: 38.43%; TRPA1 Pre-incubation [1]: −1.32% |
